Measurements as given in patent US8247211B2, “Glycopeptide antibiotics” (American Cyanamid Company, priority 2001, dated 2012).
≈ marks a conversion by molar mass, not a printed value.

Key:
Staphylococcus sp. = experiment: In vitro antibacterial evaluation: minimum inhibitory concentration (MIC), broth dilution method; type: cell-based; details: for MIC Staphylococcus aureus (ATCC 29213): strain ATCC 29213; for MIC Staphylococcus aureus (GC 1131): strain GC 1131; for MIC Staphylococcus aureus (GC 3051): strain GC 3051; for MIC Staphylococcus aureus (GC 3053): strain GC 3053; for MIC Staphylococcus aureus (GC 4541): strain GC 4541; for MIC Staphylococcus aureus (GC 4542): strain GC 4542; for MIC Staphylococcus aureus-SMITH (GC 4543): strain GC 4543; for MIC Staphylococcus aureus (GC 4544): strain GC 4544; for MIC Staphylococcus aureus (GC 4545): strain GC 4545; for MIC Staphylococcus haemolyticus (GC 4546): strain GC 4546; for MIC Coagulase Negative Staphylococcus (GC 4547): strain GC 4547; for MIC Coagulase Negative Staphylococcus (GC 4548): strain GC 4548; for MIC Coagulase Negative Staphylococcus (GC 4549): strain GC 4549; for MIC Coagulase Negative Staphylococcus (GC 4551): strain GC 4551; for MIC Coagulase Negative Staphylococcus (GC 6257): strain GC 6257
Summary of the method: (§1)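 First, organisms are seeded at 5×10^5 CFU/mL into Muller-Hinton II […]. Next, antibiotic is applied across 64-0.06 μg/mL by broth dilution (NCCLS M7-A2). Finally, the lowest inhibitory concentration is recorded as MIC.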

Escherichia coli = experiment: as above; type: cell-based; details: 5×10^5 CFU/mL, 18 hours at 35° C.
Summary of the method: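 Broth dilution per NCCLS M7-A2 in Muller-Hinton II […], inoculum 5×10^5 CFU/mL, antibiotic tested over 64-0.06 μg/mL. MIC is taken as the lowest concentration that inhibits growth. Panel includes recent clinical isolates resistant to methicillin, penicillin and/or vancomycin.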

Enterococcus sp. = experiment: as above; type: cell-based; details: broth dilution, 5×10^5 CFU/mL, 18 hours at 35° C.
Summary of the method: as §1

Streptococcus sp. = experiment: as above; type: cell-based; details: broth dilution, 5×10^5 CFU/mL, 18 hours at 35° C.
Summary of the method: as §1

[1] = system: Enterococcus faecalis (GC 6189), vancomycin resistant strain; experiment: Acute lethal infection in mice (ED50); type: in vivo; details: female CD-1 mice, intraperitoneal challenge, intravenous dose 30 min. after infection, 7 day survival ratios
Summary of the method: (§2)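 ED50 derived from pooled 7-day survival in three separate experiments, five mice per dose level. Single intravenous dose 30 min after intraperitoneal infection of female CD-1 mice with enough bacteria to kill untreated animals in 24-48 h.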

[2] = system: Staphylococcus aureus-SMITH (GC 4543); experiment: Acute lethal infection in mice (ED50); type: in vivo; details: female CD-1 mice, intraperitoneal challenge, intravenous dose 30 min. after infection, 7 day survival ratios
Summary of the method: as §2

[3] = broth dilution, 18 hours at 35° C.

SMILES: CC(c1ccccc1)C1NC(=O)CNC(=O)C(CO)NC(=O)C(C(O)C2CNC(=N)N2C2OC(CO)C(O)C(O)C2O)NC(=O)C(C(O)C2CNC(=N)N2)NC(=O)C(Cc2ccc(OC3OC(CO)C(OC4OC5COC(C6CC=CCC6)OC5C(O)C4O)C(O)C3O)cc2)NC1=O (stereo not drawn) [Example 115, Cyclo[glycyl-β-methylphenylalanyl-O-[4-O-[4,6-O-(cyclohex-3-en-1-ylmethylene)hexopyranosyl]hexopyranosyl]tyrosyl-3-(2-iminoimidazolidin-4-yl)seryl-3-(3-hexopyranosyl-2-iminoimidazolidin-4-yl)serylseryl]]
- MIC Staphylococcus aureus (ATCC 29213) (Staphylococcus sp.): 1 µg/mL (≈ 0.721 µM)
- MIC Staphylococcus aureus (ATCC 29213) (Staphylococcus sp.; [3]): 1 µg/mL (≈ 0.721 µM)
- MIC Staphylococcus aureus (GC 1131) (Staphylococcus sp.): 1 µg/mL (≈ 0.721 µM)
- MIC Staphylococcus aureus (GC 1131) (Staphylococcus sp.; [3]): 1 µg/mL (≈ 0.721 µM)
- MIC Staphylococcus aureus (GC 3051) (Staphylococcus sp.): 1 µg/mL (≈ 0.721 µM)
- MIC Staphylococcus aureus (GC 3051) (Staphylococcus sp.; [3]): 1 µg/mL (≈ 0.721 µM)
- MIC Staphylococcus aureus (GC 3053) (Staphylococcus sp.): 1 µg/mL (≈ 0.721 µM)
- MIC Staphylococcus aureus (GC 3053) (Staphylococcus sp.; [3]): 1 µg/mL (≈ 0.721 µM)
- MIC Staphylococcus aureus (GC 4541) (Staphylococcus sp.): 1 µg/mL (≈ 0.721 µM)
- MIC Staphylococcus aureus (GC 4541) (Staphylococcus sp.; [3]): 1 µg/mL (≈ 0.721 µM)
- MIC Staphylococcus aureus (GC 4542) (Staphylococcus sp.): 0.5 µg/mL (≈ 0.36 µM)
- MIC Staphylococcus aureus (GC 4542) (Staphylococcus sp.; [3]): 0.5 µg/mL (≈ 0.36 µM)
- MIC Staphylococcus aureus-SMITH (GC 4543) (Staphylococcus sp.; 18 hours at 35° C.): 1 µg/mL (≈ 0.721 µM)
- MIC Staphylococcus aureus-SMITH (GC 4543) (Staphylococcus sp.; [3]): 1 µg/mL (≈ 0.721 µM)
- MIC Staphylococcus aureus (GC 4544) (Staphylococcus sp.): 1 µg/mL (≈ 0.721 µM)
- MIC Staphylococcus aureus (GC 4544) (Staphylococcus sp.; [3]): 1 µg/mL (≈ 0.721 µM)
- MIC Staphylococcus aureus (GC 4545) (Staphylococcus sp.): 0.5 µg/mL (≈ 0.36 µM)
- MIC Staphylococcus aureus (GC 4545) (Staphylococcus sp.; [3]): 0.5 µg/mL (≈ 0.36 µM)
- MIC Staphylococcus haemolyticus (GC 4546) (Staphylococcus sp.): 0.5 µg/mL (≈ 0.36 µM)
- MIC Staphylococcus haemolyticus (GC 4546) (Staphylococcus sp.; [3]): 0.5 µg/mL (≈ 0.36 µM)
- MIC Coagulase Negative Staphylococcus (GC 4547) (Staphylococcus sp.): 1 µg/mL (≈ 0.721 µM)
- MIC Coagulase Negative Staphylococcus (GC 4547) (Staphylococcus sp.; [3]): 1 µg/mL (≈ 0.721 µM)
- MIC Coagulase Negative Staphylococcus (GC 4548) (Staphylococcus sp.): 0.5 µg/mL (≈ 0.36 µM)
- MIC Coagulase Negative Staphylococcus (GC 4548) (Staphylococcus sp.; [3]): 0.5 µg/mL (≈ 0.36 µM)
- MIC Coagulase Negative Staphylococcus (GC 4549) (Staphylococcus sp.): 1 µg/mL (≈ 0.721 µM)
- MIC Coagulase Negative Staphylococcus (GC 4549) (Staphylococcus sp.; [3]): 1 µg/mL (≈ 0.721 µM)
- MIC Coagulase Negative Staphylococcus (GC 4551) (Staphylococcus sp.): 1 µg/mL (≈ 0.721 µM)
- MIC Coagulase Negative Staphylococcus (GC 4551) (Staphylococcus sp.; [3]): 1 µg/mL (≈ 0.721 µM)
- MIC Coagulase Negative Staphylococcus (GC 6257) (Staphylococcus sp.): 0.5 µg/mL (≈ 0.36 µM)
- MIC Coagulase Negative Staphylococcus (GC 6257) (Staphylococcus sp.; [3]): 0.5 µg/mL (≈ 0.36 µM)
- MIC Escherichia coli (ATCC 25922) (Escherichia coli): 32 µg/mL (≈ 23.1 µM)
- MIC Escherichia coli (GC 4559) (Escherichia coli): 64 µg/mL (≈ 46.1 µM)
- MIC Escherichia coli (GC 4560) (Escherichia coli): 1 µg/mL (≈ 0.721 µM)
- MIC Enterococccus avium (GC 4558) (Enterococcus sp.): 2 µg/mL (≈ 1.44 µM)
- MIC Enterococccus faecalis (ATCC 29212) (Enterococcus sp.): 2 µg/mL (≈ 1.44 µM)
- MIC Enterococccus faecalis (GC 2691) (Enterococcus sp.): 2 µg/mL (≈ 1.44 µM)
- MIC Enterococccus faecalis (GC 3059) (Enterococcus sp.): 2 µg/mL (≈ 1.44 µM)
- MIC Enterococccus faecalis (GC 4552) (Enterococcus sp.): 2 µg/mL (≈ 1.44 µM)
- MIC Enterococccus faecalis (GC 4553) (Enterococcus sp.): 4 µg/mL (≈ 2.88 µM)
- MIC Enterococccus faecalis (GC 4554) (Enterococcus sp.): 2 µg/mL (≈ 1.44 µM)
- MIC Enterococccus faecalis (GC 6189) (Enterococcus sp.): 2 µg/mL (≈ 1.44 µM)
- MIC Enterococccus faecium (GC 2243) (Enterococcus sp.): 2 µg/mL (≈ 1.44 µM)
- MIC Enterococccus faecium (GC 4556) (Enterococcus sp.): 2 µg/mL (≈ 1.44 µM)
- MIC Enterococccus faecium (GC 4557) (Enterococcus sp.): 2 µg/mL (≈ 1.44 µM)
- MIC Enterococcus faecalis (GC 2242) (Enterococcus sp.): 2 µg/mL (≈ 1.44 µM)
- MIC Streptococcus agalactiae (GC 4564) (Streptococcus sp.): 0.25 µg/mL (≈ 0.18 µM)
- MIC Streptococcus pneumoniae (GC 1894) (Streptococcus sp.): <0.06 µg/mL
- MIC Streptococcus pneumoniae (GC 4565) (Streptococcus sp.): 0.12 µg/mL (≈ 0.0865 µM)
- MIC Streptococcus pneumonine (ATCC 6301) (Streptococcus sp.): <0.06 µg/mL
- MIC Streptococcus pyogenes (GC 4563) (Streptococcus sp.): 0.25 µg/mL (≈ 0.18 µM)
- median effective dose (ED50), Enterococcus faecalis (GC 6189) [1]: 0.36 mg/kg
- median effective dose (ED50), Staphylococcus aureus-SMITH (GC 4543) [2]: 0.23 mg/kg
